Assay results published in US8268849B2, “Multifunctional Antioxidants and methods of use thereof” (priority 2007, dated 2012).
“Also recorded” adds a separate entry of the source.

Legend:
[1] = tested on: diabetic cataract formation; experiment: Cataract formation in diabetic rats; type: in vivo; conditions: streptozotocin diabetic rats
Experimental: Diabetes was induced in 100 g Sprague Dawley rats with streptozotocin injection (75 mg/kg) and all rats with blood sugar levels >300 mg/dL were divided into 4 groups of 8 rats each. One group received only standard rat chow (untreated diabetic) while each of the other groups received chow containing either 0.0125% ARI Al1576, 0.025% JHX-4 or 0.025% JHX-8. Lens changes were monitored by at 3-5 day intervals by slit lamp following tropicamide mydriasis. As summarized in FIGS. 8A-8C, vacuole formation began by 14 days in the untreated diabetic group with cortical opacities observed by 29 days and mature cataracts by 44 days. […] In the two antioxidant treated groups, vacuole formation was delayed by 19 and 11 days by JHX-4 and JHX-8, respectively, and cortical cataracts by 9 and 3 days, respectively. At the end of the study (47 days) all rats were equally diabetic with HbA1C levels >11.9%. All eyes were enucleated and lens sorbitol levels were measured as previously described (Kador et al. (2007) J. Ocul. Pharmacol. Ther., 23:116-23). […] Tissue levels of JHX-4 and -8 in the lens, neural retina and brain were determined after 47 days of feeding as described above (FIG. 10). […] Overall drug levels in both the lens and retina were ca. 3-fold higher in the diabetic rats with brain levels also now present. This increase may be due to either an accumulation of drug, or increased permeability of tissues and the BBB to drug in streptozotocin diabetic rats (Mooradian et al. (2005) Diabetes, 54:2977-82).

[2] = Chelation study by ESI-MS, Cu^2+ solution; type: binding; conditions: 10:1 metal:compound, 45 minutes of mixing
Experimental: (§1) The relative amount of ions bound by JHX-1-JHX-8 was determined by electrospray ionization mass spectrometry (ESI-MS) according to the method of Baron and Hering (Baron and Hering (1998) Spectrometry J. Environ. Qual., 27:844-850). In this method solutions containing Fe^2+, Fe^3+, Cu^1+, Cu^2+, Zn^2+, Ca^2+, Mg^2+ were mixed with compound in ratios of 10:1, 1:1, and 1:10. After 45 minutes of mixing, each solution was directly infused into the MS with constant ionization energy and the relative decreases of the parent peaks in these solutions were determined. […] FIG. 3 illustrates ion binding with increased Fe^+2 concentrations results in decreased compound parent peak heights by ESI-MS when compounds contain appropriate functional groups for metal ion chelation.

[3] = Chelation study by ESI-MS, Mg^2+ solution; type: binding; conditions: 10:1 metal:compound, 45 minutes of mixing
Experimental: as §1

[4] = Chelation study by ESI-MS, Fe^3+ solution; type: binding; conditions: 10:1 metal:compound, 45 minutes of mixing
Experimental: as §1

[5] = Chelation study by ESI-MS, Ca^2+ solution; type: binding; conditions: 10:1 metal:compound, 45 minutes of mixing
Experimental: as §1

[6] = Chelation study by ESI-MS, Fe^2+ solution; type: binding; conditions: 10:1 metal:compound, 45 minutes of mixing
Experimental: as §1

[7] = Chelation study by ESI-MS, Cu^1+ solution; type: binding; conditions: 10:1 metal:compound, 45 minutes of mixing
Experimental: as §1

[8] = Chelation study by ESI-MS, Zn^2+ solution; type: binding; conditions: 10:1 metal:compound, 45 minutes of mixing
Experimental: as §1

[9] = Chelation studies by ESI-MS, overall statement on ion binding; conditions: binding order Cu^1+=Cu^2+>Fe^2+=Fe^3+>Zn^2+; no binding with Ca^2+ or Mg^2+
Experimental: as §1

[10] = tested on: SRA-1 human lens epithelial cells; experiment: ROS staining (H2DCF-DA) in lens epithelial cells; type: cell-based; conditions: 24 hour incubation, H2DCF-DA stain; for ROS staining, ROS generated by Fenton reaction: 0.1 mM Fe^2+ and 0.1 mM hydrogen peroxide; for ROS staining, ROS initiated by homocysteine: 10 mM homocysteine (ER stress)
Experimental: The SRA-1 human lens epithelium cell line (Ibaraki et al. (1998) Exp. Eye Res., 67:577-85) was used to evaluate the antioxidant activity of JHX-1-8. These cells were cultured in DMEM media containing 10% fetal bovine serum (FBS), glutamine, NaHCO3, penicillin, and streptomycin at 37° C. in humidified atmosphere of 5% CO2 and 95% air until subconfluent (2-4 days). The cells were passaged when 80-90% confluent by treatment with trypsin-EDTA. The cells were plated at a density of 1×10^4 cells onto 96-well plates or 1×10^6 cells onto 100-mm dishes. ROS levels/effects in cells treated with JHX-1-8 were compared to similar cells treated with the water soluble Vitamin E derivative, Trolox (antioxidant control) or no drug (control).
The compounds were initially screened for antioxidant activity in 24 hour cultured SRA-1 human lens epithelial cells. Reactive oxygen species (ROS) in these cells were generated through both the Fenton reaction in which 0.1 mM Fe^2+ and 0.1 mM hydrogen peroxide were added to the culture media, or by culturing the lens with 10 mM homocysteine which induces endoplasmic reticular (ER) stress that results in the unfolded protein response (UPR) that subsequently generates the ROS. ROS were visualized with 2′,7′-dichlorodihydrofluorescein diacetate (DCF) staining. More specifically, after 24 hours of incubation, all cells were washed 2× with PBS and then incubated at room temperature for 1 hour with 10 μM H2DCF-DA (Invitrogen) stain. Fluorescent ROS staining was analyzed by quantifying pixel intensities of images obtained by fluorescent microscopy. As illustrated below in FIGS. 4A and 4B, compounds with chelating groups only produced a dose-dependent reduction in Fenton Reaction generated ROS. […] Indeed, homocysteine activates ER stress which subsequently initiates ROS through an Unfolded Protein Response (UPR).

[11] = tested on: SRA-1 human lens epithelium cell line; experiment: MTS cell viability assay; type: cell-based; conditions: 1 mM compound; for protection against H2O2 induced loss of cell viability: 1.0 mM H2O2, 2 hours
Experimental: The SRA-1 human lens epithelium cell line (Ibaraki et al. (1998) Exp. Eye Res., 67:577-85) was used to evaluate the antioxidant activity of JHX-1-8. […] The cells were passaged when 80-90% confluent by treatment with trypsin-EDTA. The cells were plated at a density of 1×10^4 cells onto 96-well plates or 1×10^6 cells onto 100-mm dishes. ROS levels/effects in cells treated with JHX-1-8 were compared to similar cells treated with the water soluble Vitamin E derivative, Trolox (antioxidant control) or no drug (control). […] Cells were cultured in 96-well plates and exposed for 2 hours to media containing 1.0 mM H2O2 (FIG. 5A) or Fenton reagents (1.0 mM H2O2 and 1.0 mM Fe^2+, FIG. 5B) with/without 1 mM JHX-1-8 or Trolox. Viability was measured as the absorbance of MTS stain at 490 nm 1 hour after the addition of 20 μL of […] AQueous One Solution Cell Proliferation Assay to each well. The results were normalized to blank control (100%) since absorbance is directly proportional to the living cell population.

[12] = Gino et al. (2001); cited from earlier work
[13] = Gino et al. (2001); cited from earlier work; remark: listed apart in the source

Compound | % Parent Peak Remaining at 10:1 Solution of Metal:Compound [2] [%] | % Parent Peak Remaining at 10:1 Solution of Metal:Compound [3] [%] | % Parent Peak Remaining at 10:1 Solution of Metal:Compound [4] [%] | % Parent Peak Remaining at 10:1 Solution of Metal:Compound [5] [%] | % Parent Peak Remaining at 10:1 Solution of Metal:Compound [6] [%] | % Parent Peak Remaining at 10:1 Solution of Metal:Compound [7] [%] | % Parent Peak Remaining at 10:1 Solution of Metal:Compound [8] [%] | lens changes by slit lamp ([1]; 0.0125% in chow, 47 days) | lens sorbitol levels ([1]; end of study (47 days)) | ion binding [9] | ROS staining, ROS generated by Fenton reaction [10] | protection against H2O2 induced loss of cell viability [11] | ROS staining, ROS initiated by homocysteine [10] | reactivity toward alkyl radicals compared to α-tocopherol [12] [fold] | reactivity to peroxy radicals compared to α-tocopherol [13] | increase of HLEC viability compared to controls ([11]; Fenton reagents (1.0 mM H2O2 and 1.0 mM Fe^2+), 2 hours) [%]
O=C1NC(=O)C2(N1)c1cc(F)ccc1-c1ccc(F)cc12 [AL1576, reference compound] | – | – | – | – | – | – | – | No lens changes were observed | No sorbitol was present | – | – | – | – | – | – | –
Cc1nc(N(C)C)nc(C)c1O [2-N,N-Dimethyl-4,6-dimethyl-5-hydroxypyrimidine] | – | – | – | – | – | – | – | – | – | – | – | – | – | 5 | essentially equally reactive | –
Cc1c(C)c2c(c(C)c1O)CCC(C)(C(=O)O)O2 (stereo not shown) [Trolox, reference compound] | – | – | – | – | – | – | – | – | – | – | – | – | – | – | – | 15

Further lines, with some results ahead:

% Parent Peak Remaining at 10:1 Solution of Metal:Compound [2] [%] | % Parent Peak Remaining at 10:1 Solution of Metal:Compound [3] [%] | % Parent Peak Remaining at 10:1 Solution of Metal:Compound [4] [%] | % Parent Peak Remaining at 10:1 Solution of Metal:Compound [5] [%] | % Parent Peak Remaining at 10:1 Solution of Metal:Compound [6] [%] | % Parent Peak Remaining at 10:1 Solution of Metal:Compound [7] [%] | % Parent Peak Remaining at 10:1 Solution of Metal:Compound [8] [%] | Compound | lens changes by slit lamp ([1]; 0.0125% in chow, 47 days) | lens sorbitol levels ([1]; end of study (47 days)) | ion binding [9] | ROS staining, ROS generated by Fenton reaction [10] | protection against H2O2 induced loss of cell viability [11] | ROS staining, ROS initiated by homocysteine [10] | reactivity toward alkyl radicals compared to α-tocopherol [12] [fold] | reactivity to peroxy radicals compared to α-tocopherol [13] | increase of HLEC viability compared to controls ([11]; Fenton reagents (1.0 mM H2O2 and 1.0 mM Fe^2+), 2 hours) [%]
4.4 | 100.0 | 10.0 | 100.0 | 8.1 | 3.6 | 15.3 | CN(C)S(=O)(=O)N1C(=O)CN(c2ncccn2)CC1=O [JHX-3, 1-N,N′-dimethylsulfamoyl-4-(2-pyrimidyl)piperazine-2,6-dione] | – | – | bind ions | decreased staining; also recorded: protected against ROS | – | – | – | – | –
100.0 | 100.0 | 100.0 | 100.0 | 100.0 | 100.0 | 100.0 | CN(C)S(=O)(=O)N1CCN(c2ncc(O)cn2)CC1 [JHX-2, 1-N,N′-dimethylsulfamoyl-4-(5-hydroxy-2-pyrimidyl)piperazine] | – | – | – | – | protecting against H2O2 induced loss of cell viability | reduced ROS staining similar to that with Trolox | – | – | –
100.0 | 100.0 | 100.0 | 100.0 | 100.0 | 100.0 | 100.0 | CN(C)S(=O)(=O)N1CCN(c2ncccn2)CC1 [JHX-1, 1-N,N′-dimethylsulfamoyl-4-(2-pyrimidyl)piperazine] | – | – | – | – | – | – | – | – | –
3.4 | 100.0 | 7.6 | 100.0 | 7.3 | 4.1 | 13.8 | COc1cc(OC)nc(N2CC(=O)N(S(=O)(=O)N(C)C)C(=O)C2)n1 [JHX-7, 1-N,N′-dimethylsulfamoyl-4-(4,6-dimethoxy-2-pyrimidyl)piperazine-2,6-dione] | – | – | bind ions | decreased staining; also recorded: protected against ROS | – | – | – | – | –
100.0 | 100.0 | 100.0 | 100.0 | 100.0 | 100.0 | 100.0 | COc1nc(N2CCN(S(=O)(=O)N(C)C)CC2)nc(OC)c1O [JHX-6, 1-N,N′-dimethylsulfamoyl-4-(4,6-dimethoxy-5-hydroxy-2-pyrimidyl)piperazine] | – | – | – | – | protecting against H2O2 induced loss of cell viability | reduced ROS staining similar to that with Trolox | – | – | –
100.0 | 100.0 | 100.0 | 100.0 | 100.0 | 100.0 | 100.0 | COc1cc(OC)nc(N2CCN(S(=O)(=O)N(C)C)CC2)n1 [JHX-5, 1-N,N′-dimethylsulfamoyl-4-(4,6-dimethoxy-2-pyrimidyl)piperazine] | – | – | – | – | – | – | – | – | –
